Patent publication US20240343704A1, “HALO-SUBSTITUTED AMINO PYRIDINE COMPOUNDS AS INHIBITORS OF THE HAEMATOPOIETIC PROGENITOR KINASE 1 (HPK1)” (priority 2021, published 2024)

Experiments:
[1] = molecular target: T1, Recombinant (1-346) HPK1 (h) (Homo sapiens, UniProt Q92918); assay: HPK1 Human STE Kinase Enzymatic Radiometric Assay; format: biochemical; details: read-out: HPK1 IC50 nM Range*
T1 construct: Recombinant (1-346) HPK1 (h) is incubated with 8 mM MOPS pH 7.0
T1 sequence (Q92918 1-346): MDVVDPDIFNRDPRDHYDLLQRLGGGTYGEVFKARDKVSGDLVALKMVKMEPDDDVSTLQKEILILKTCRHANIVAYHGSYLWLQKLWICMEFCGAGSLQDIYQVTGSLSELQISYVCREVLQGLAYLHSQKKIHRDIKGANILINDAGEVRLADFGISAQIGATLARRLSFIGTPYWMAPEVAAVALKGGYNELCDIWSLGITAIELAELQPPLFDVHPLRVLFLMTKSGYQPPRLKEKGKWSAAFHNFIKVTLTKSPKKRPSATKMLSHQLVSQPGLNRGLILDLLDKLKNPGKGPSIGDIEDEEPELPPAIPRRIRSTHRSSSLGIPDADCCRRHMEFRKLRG
Method: A stock solution of 10 mM of test compound is prepared in DMSO. The compound plate was prepared by 3-fold and 9-point serial dilutions. […] The reaction is initiated by The addition of the Mg/ATP mix. After incubation for 40 minutes at RT, the reaction is stopped by the addition of phosphoric acid to a concentration of 0.5%.

Lck (h) = Lck (h) (Homo sapiens, UniProt P06239); assay: Lck Human  Kinase Enzymatic Radiometric Assay; format: biochemical; details: read-out: Lck IC50 nM Range*
Outline: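 Substrate 33P-incorporation measured by scintillation counting after spotting on P30 filtermat and phosphoric acid washes. Human Lck reacted 40 min at RT in 50 mM Tris pH 7.5 with 10 mM MgAcetate, [gamma-33P]-ATP, 250 uM Cdc2 peptide, 0.1 mM EGTA and 0.1 mM Na3VO4.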

Lck (h), sequence (P06239 whole entry): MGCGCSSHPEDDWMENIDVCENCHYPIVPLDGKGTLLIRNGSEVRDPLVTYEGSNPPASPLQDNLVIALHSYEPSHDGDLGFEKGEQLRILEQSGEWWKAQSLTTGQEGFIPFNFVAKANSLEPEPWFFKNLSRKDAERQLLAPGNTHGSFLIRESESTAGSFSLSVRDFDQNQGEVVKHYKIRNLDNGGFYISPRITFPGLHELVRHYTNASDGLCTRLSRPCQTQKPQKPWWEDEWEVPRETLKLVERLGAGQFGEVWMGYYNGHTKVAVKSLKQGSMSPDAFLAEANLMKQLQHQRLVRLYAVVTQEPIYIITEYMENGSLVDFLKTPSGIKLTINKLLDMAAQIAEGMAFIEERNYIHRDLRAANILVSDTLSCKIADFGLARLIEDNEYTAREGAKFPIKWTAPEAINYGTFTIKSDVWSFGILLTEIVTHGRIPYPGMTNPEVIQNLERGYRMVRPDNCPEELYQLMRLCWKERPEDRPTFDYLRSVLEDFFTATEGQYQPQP

SMILES | IC50 [1] | IC50 (Lck (h))
CC(C)N1CCC(Oc2ccc(-c3cc(-c4ccc5c(c4)CCNC5=O)c(N)nc3F)cc2F)CC1 [I-268, 6-(2-amino-6-fluoro-5-(3-fluoro-4-((1-isopropylpiperidin-4-yl)oxy)phenyl)pyridin-3-yl)-3,4-dihydroisoquinolin-1(2H)-one] | 0.1 to 10 nM | > 1000 nM
COCCN1CCC(Oc2ccc(-c3cc(-c4ccc5c(c4)CCNC5=O)c(N)nc3F)cc2F)CC1 [I-269, 6-(2-amino-6-fluoro-5-(3-fluoro-4-((1-(2-methoxyethyl)piperidin-4-yl)oxy)phenyl)pyridin-3-yl)-3,4-dihydroisoquinolin-1(2H)-one] | 0.1 to 10 nM | > 1000 nM
CC(C)N1CCC(Oc2ccc(-c3cc(-c4ccc5c(c4)CCNC5=O)c(N)nc3F)c(F)c2F)CC1 [I-270, 6-(2-amino-5-(2,3-difluoro-4-((1-isopropylpiperidin-4-yl)oxy)phenyl)-6-fluoropyridin-3-yl)-3,4-dihydroisoquinolin-1(2H)-one] | 11 to 100 nM | > 1000 nM
CC(C)N1CCC(Oc2cc(F)c(-c3cc(-c4ccc5c(c4)CCNC5=O)c(N)nc3F)cc2F)CC1 [I-271, 6-(2-amino-5-(2,5-difluoro-4-((1-isopropylpiperidin-4-yl)oxy)phenyl)-6-fluoropyridin-3-yl)-3,4-dihydroisoquinolin-1(2H)-one] | 11 to 100 nM | > 1000 nM
COc1cc(OC2CCN(C(C)C)CC2)ccc1-c1cc(-c2ccc3c(c2)CCNC3=O)c(N)nc1F [I-272, 6-(2-amino-6-fluoro-5-(4-((1-isopropylpiperidin-4-yl)oxy)-2-methoxyphenyl)pyridin-3-yl)-3,4-dihydroisoquinolin-1(2H)-one] | 0.1 to 10 nM | > 1000 nM
COc1cc(-c2cc(-c3ccc4c(c3)CCNC4=O)c(N)nc2F)ccc1OC1CCN(C(C)C)CC1 [I-273, 6-(2-amino-6-fluoro-5-(4-((1-isopropylpiperidin-4-yl)oxy)-3-methoxyphenyl)pyridin-3-yl)-3,4-dihydroisoquinolin-1(2H)-one] | 0.1 to 10 nM | > 1000 nM
CC(C)N1CCC[C@H](Oc2ccc(-c3cc(-c4ccc5c(c4)CCNC5=O)c(N)nc3F)cc2)C1 [I-274, (S)-6-(2-amino-6-fluoro-5-(4-((1-isopropylpiperidin-3-yl)oxy)phenyl)pyridin-3-yl)-3,4-dihydroisoquinolin-1(2H)-one] | 0.1 to 10 nM | > 1000 nM
CC(C)N1CCC(Oc2ccc(-c3cc(-c4ccc5c(c4)CCNC5=O)c(N)nc3F)c3c2OCO3)CC1 [I-275, 6-(2-amino-6-fluoro-5-(7-((1-isopropylpiperidin-4-yl)oxy)benzo[d][1,3]dioxol-4-yl)pyridin-3-yl)-3,4-dihydroisoquinolin-1(2H)-one] | 0.1 to 10 nM | > 1000 nM
CNCC1Cc2cc(-c3cc(-c4ccc5c(c4)CCNC5=O)c(N)nc3F)ccc2C(=O)N1 (centres unmarked) [I-276, 6-(6-amino-2-fluoro-5-(1-oxo-1,2,3,4-tetrahydroisoquinolin-6-yl)pyridin-3-yl)-3-((methylamino)methyl)-3,4-dihydroisoquinolin-1(2H)-one] | 11 to 100 nM | > 1000 nM
CN1CCCN(c2ccc(-c3cc(-c4ccc5c(c4)CCNC5=O)c(N)nc3F)cc2)CC1 [I-277, 6-(2-amino-6-fluoro-5-(4-(4-methyl-1,4-diazepan-1-yl)phenyl)pyridin-3-yl)-3,4-dihydroisoquinolin-1(2H)-one] | 0.1 to 10 nM | > 1000 nM
CC(C)N1CCN(c2ccc(-c3cc(-c4ccc5c(c4)CCNC5=O)c(N)nc3F)cc2)CC1C (centres unmarked) [I-278, 6-(2-amino-6-fluoro-5-(4-(4-isopropyl-3-methylpiperazin-1-yl)phenyl)pyridin-3-yl)-3,4-dihydroisoquinolin-1(2H)-one] | 0.1 to 10 nM | > 1000 nM
CC(C)N1CCCN(c2ccc(-c3cc(-c4ccc5c(c4)CCNC5=O)c(N)nc3F)cc2)CC1 [I-279, 6-(2-amino-6-fluoro-5-(4-(4-isopropyl-1,4-diazepan-1-yl)phenyl)pyridin-3-yl)-3,4-dihydroisoquinolin-1(2H)-one] | 0.1 to 10 nM | > 1000 nM
Nc1nc(F)c(-c2ccc(N3CCN4CCCC4C3)cc2)cc1-c1ccc2c(c1)CCNC2=O (centres unmarked) [I-280, 6-(2-amino-6-fluoro-5-(4-(hexahydropyrrolo[1,2-a]pyrazin-2(1H)-yl)phenyl)pyridin-3-yl)-3,4-dihydroisoquinolin-1(2H)-one] | 0.1 to 10 nM | > 1000 nM
Nc1nc(F)c(-c2ccc(N3CCCN4CCCC4C3)cc2)cc1-c1ccc2c(c1)CCNC2=O (centres unmarked) [I-281, 6-(2-amino-6-fluoro-5-(4-(hexahydro-1H-pyrrolo[1,2-a][1,4]diazepin-2(3H)-yl)phenyl)pyridin-3-yl)-3,4-dihydroisoquinolin-1(2H)-one] | 0.1 to 10 nM | > 1000 nM
C[C@H]1CN(C)CCN1c1ccc(-c2cc(-c3ccc4c(c3)CCNC4=O)c(N)nc2F)cc1 [I-282, (S)-6-(2-amino-5-(4-(2,4-dimethylpiperazin-1-yl)phenyl)-6-fluoropyridin-3-yl)-3,4-dihydroisoquinolin-1(2H)-one] | 0.1 to 10 nM | > 1000 nM
CN(C)C1CCN(c2ccc(-c3cc(-c4ccc5c(c4)CCNC5=O)c(N)nc3F)cc2)CC1 [I-283, 6-(2-amino-5-(4-(4-(dimethylamino)piperidin-1-yl)phenyl)-6-fluoropyridin-3-yl)-3,4-dihydroisoquinolin-1(2H)-one] | 0.1 to 10 nM | > 1000 nM
C[C@@H]1CN(c2ccc(-c3cc(-c4ccc5c(c4)CCNC5=O)c(N)nc3F)cc2)C[C@H](C)N1C(=O)OC(C)(C)C [I-284, tert-butyl (2R,6S)-4-(4-(6-amino-2-fluoro-5-(1-oxo-1,2,3,4-tetrahydroisoquinolin-6-yl)pyridin-3-yl)phenyl)-2,6-dimethylpiperazine-1-carboxylate] | 11 to 100 nM | > 1000 nM
CNCC1Cc2cc(-c3cc(-c4ccc(N5CCOCC5)cc4)c(F)nc3N)ccc2C(=O)N1 (centres unmarked) [I-285, 6-(2-amino-6-fluoro-5-(4-morpholinophenyl)pyridin-3-yl)-3-((methylamino)methyl)-3,4-dihydroisoquinolin-1(2H)-one] | 11 to 100 nM | > 1000 nM
CNCC1Cc2cc(-c3cc(-c4ccc(N5CCN(C(C)C)CC5)cc4)c(F)nc3N)ccc2C(=O)N1 (centres unmarked) [I-286, 6-(2-amino-6-fluoro-5-(4-(4-isopropylpiperazin-1-yl)phenyl)pyridin-3-yl)-3-((methylamino)methyl)-3,4-dihydroisoquinolin-1(2H)-one] | 0.1 to 10 nM | > 1000 nM
Nc1nc(F)c(-c2ccc3c(c2)CCNC3)cc1-c1cc2c(cc1F)C(=O)NCC2 [I-287, 2,2,2-trifluoroacetate] | 0.1 to 10 nM | > 1000 nM
CC(C)N1CC(Oc2ccc(-c3cc(-c4ccc5c(c4)CCNC5=O)c(N)nc3F)cc2)C1 [I-288, 6-(2-amino-6-fluoro-5-(4-((1-isopropylazetidin-3-yl)oxy)phenyl)pyridin-3-yl)-3,4-dihydroisoquinolin-1(2H)-one] | 0.1 to 10 nM | > 1000 nM
N#Cc1cc(-c2cc(-c3cc4c(cc3F)C(=O)NCC4)c(N)nc2F)ccc1OC1CCNCC1 [I-289, 5-(6-amino-2-fluoro-5-(7-fluoro-1-oxo-1,2,3,4-tetrahydroisoquinolin-6-yl)pyridin-3-yl)-2-(piperidin-4-yloxy)benzonitrile] | 11 to 100 nM | > 1000 nM
